Experimental data published in ChEMBL document CHEMBL5038625, “Application of the dual-tail approach for the design and synthesis of novel Thiopyrimidine-Benzenesulfonamide hybrids as selective carbonic anhydrase inhibitors” (Eur J Med Chem, 2022).

Experiments:
[1] = test system: HL-60; assay: Antiproliferative activity against human HL-60 cells assessed as cell growth inhibition at 10 uM incubated for 24 hrs by sulforhodamine B assay; format: functional; conditions: read-out: GI
[2] = test system: SF-539; assay: Antiproliferative activity against human SF-539 cells assessed as cell growth inhibition at 10 uM incubated for 24 hrs by sulforhodamine B assay; format: functional; conditions: read-out: GI
[3] = test system: NCI-H522; assay: Antiproliferative activity against human NCI-H522 cells assessed as cell growth inhibition at 10 uM incubated for 24 hrs by sulforhodamine B assay; format: functional; conditions: read-out: GI
[4] = biological target: Carbonic anhydrase 9 (Homo sapiens, UniProt Q16790); assay: Inhibition of human CA9 preincubated for 15 mins by phenol red dye based stopped flow CO2 hydration assay
[5] = biological target: Carbonic anhydrase 2 (Homo sapiens, UniProt P00918); assay: Inhibition of human CA2 preincubated for 15 mins by phenol red dye based stopped flow CO2 hydration assay
[6] = test system: MCF7; assay: Antiproliferative activity against human MCF7 cells assessed as cell growth inhibition at 10 uM incubated for 24 hrs by sulforhodamine B assay; format: functional; conditions: read-out: GI
[7] = test system: HOP-92; assay: Antiproliferative activity against human HOP-92 cells assessed as cell growth inhibition at 10 uM incubated for 24 hrs by sulforhodamine B assay; format: functional; conditions: read-out: GI
[8] = test system: HCT-15; assay: Antiproliferative activity against human HCT-15 cells assessed as cell growth inhibition at 10 uM incubated for 24 hrs by sulforhodamine B assay; format: functional; conditions: read-out: GI
[9] = test system: SR; assay: Antiproliferative activity against human SR cells assessed as cell growth inhibition at 10 uM incubated for 24 hrs by sulforhodamine B assay; format: functional; conditions: read-out: GI
[10] = test system: SNB-19; assay: Antiproliferative activity against human SNB-19 cells assessed as cell growth inhibition at 10 uM incubated for 24 hrs by sulforhodamine B assay; format: functional; conditions: read-out: GI
[11] = test system: CAKI-1; assay: Antiproliferative activity against human CAKI-1 cells assessed as cell growth inhibition at 10 uM incubated for 24 hrs by sulforhodamine B assay; format: functional; conditions: read-out: GI
[12] = test system: RPMI-8226; assay: Antiproliferative activity against human RPMI-8226 cells assessed as cell growth inhibition at 10 uM incubated for 24 hrs by sulforhodamine B assay; format: functional; conditions: read-out: GI
[13] = test system: MOLT-4; assay: Antiproliferative activity against human MOLT-4 cells assessed as cell growth inhibition at 10 uM incubated for 24 hrs by sulforhodamine B assay; format: functional; conditions: read-out: GI
[14] = test system: RXF 393; assay: Antiproliferative activity against human RXF 393 cells assessed as cell growth inhibition at 10 uM incubated for 24 hrs by sulforhodamine B assay; format: functional; conditions: read-out: GI
[15] = test system: PC-3; assay: Antiproliferative activity against human PC-3 cells assessed as cell growth inhibition at 10 uM incubated for 24 hrs by sulforhodamine B assay; format: functional; conditions: read-out: GI
[16] = test system: K562; assay: Antiproliferative activity against human K562 cells assessed as cell growth inhibition at 10 uM incubated for 24 hrs by sulforhodamine B assay; format: functional; conditions: read-out: GI
[17] = test system: UO-31; assay: Antiproliferative activity against human UO-31 cells assessed as cell growth inhibition at 10 uM incubated for 24 hrs by sulforhodamine B assay; format: functional; conditions: read-out: GI
[18] = test system: ACHN; assay: Antiproliferative activity against human ACHN cells assessed as cell growth inhibition at 10 uM incubated for 24 hrs by sulforhodamine B assay; format: functional; conditions: read-out: GI
[19] = test system: CCRF-CEM; assay: Antiproliferative activity against human CCRF-CEM cells assessed as cell growth inhibition at 10 uM incubated for 24 hrs by sulforhodamine B assay; format: functional; conditions: read-out: GI
[20] = test system: UACC-62; assay: Antiproliferative activity against human UACC-62 cells assessed as cell growth inhibition at 10 uM incubated for 24 hrs by sulforhodamine B assay; format: functional; conditions: read-out: GI
[21] = test system: MDA-MB-468; assay: Antiproliferative activity against human MDA-MB-468 cells assessed as cell growth inhibition at 10 uM incubated for 24 hrs by sulforhodamine B assay; format: functional; conditions: read-out: GI
[22] = test system: T47D; assay: Antiproliferative activity against human T47D cells assessed as cell growth inhibition at 10 uM incubated for 24 hrs by sulforhodamine B assay; format: functional; conditions: read-out: GI
[23] = test system: NCI-H23; assay: Antiproliferative activity against human NCI-H23 cells assessed as cell growth inhibition at 10 uM incubated for 24 hrs by sulforhodamine B assay; format: functional; conditions: read-out: GI
[24] = test system: NCI-H460; assay: Antiproliferative activity against human NCI-H460 cells assessed as cell growth inhibition at 10 uM incubated for 24 hrs by sulforhodamine B assay; format: functional; conditions: read-out: GI
[25] = test system: SW-620; assay: Antiproliferative activity against human SW-620 cells assessed as cell growth inhibition at 10 uM incubated for 24 hrs by sulforhodamine B assay; format: functional; conditions: read-out: GI
[26] = biological target: Carbonic anhydrase 1 (Homo sapiens, UniProt P00915); assay: Inhibition of human CA1 preincubated for 15 mins by phenol red dye based stopped flow CO2 hydration assay
[27] = test system: LOX IMVI; assay: Antiproliferative activity against human LOX IMVI cells assessed as cell growth inhibition at 10 uM incubated for 24 hrs by sulforhodamine B assay; format: functional; conditions: read-out: GI
[28] = test system: SNB-75; assay: Antiproliferative activity against human SNB-75 cells assessed as cell growth inhibition at 10 uM incubated for 24 hrs by sulforhodamine B assay; format: functional; conditions: read-out: GI
[29] = test system: A498; assay: Antiproliferative activity against human A498 cells assessed as cell growth inhibition at 10 uM incubated for 24 hrs by sulforhodamine B assay; format: functional; conditions: read-out: GI
[30] = test system: MCF7; assay: Antiproliferative activity against human MCF7 cells assessed as reduction in cell viability incubated for 24 hrs by sulforhodamine B assay; format: functional, cell-based; conditions: MCF7, 24 h
[31] = test system: MDA-MB-231; assay: Antiproliferative activity against human MDA-MB-231 cells assessed as reduction in cell viability incubated for 24 hrs by sulforhodamine B assay; format: functional, cell-based; conditions: MDA-MB-231, 24 h
[32] = test system: T47D; assay: Antiproliferative activity against human T47D cells assessed as reduction in cell viability incubated for 24 hrs by sulforhodamine B assay; format: functional, cell-based
[33] = test system: KM12; assay: Antiproliferative activity against human KM12 cells assessed as cell growth inhibition at 10 uM incubated for 24 hrs by sulforhodamine B assay; format: functional; conditions: read-out: GI
[34] = test system: MDA-MB-231; assay: Antiproliferative activity against human MDA-MB-231 cells assessed as cell growth inhibition at 10 uM incubated for 24 hrs by sulforhodamine B assay; format: functional; conditions: read-out: GI
[35] = test system: A549; assay: Antiproliferative activity against human A549 cells assessed as cell growth inhibition at 10 uM incubated for 24 hrs by sulforhodamine B assay; format: functional; conditions: read-out: GI
[36] = test system: U-251; assay: Antiproliferative activity against human U-251 cells assessed as cell growth inhibition at 10 uM incubated for 24 hrs by sulforhodamine B assay; format: functional; conditions: read-out: GI
[37] = test system: OVCAR-4; assay: Antiproliferative activity against human OVCAR-4 cells assessed as cell growth inhibition at 10 uM incubated for 24 hrs by sulforhodamine B assay; format: functional; conditions: read-out: GI
[38] = test system: Malme-3M; assay: Antiproliferative activity against human Malme-3M cells assessed as cell growth inhibition at 10 uM incubated for 24 hrs by sulforhodamine B assay; format: functional; conditions: read-out: GI

Sequence of Carbonic anhydrase 1 (P00915 whole entry): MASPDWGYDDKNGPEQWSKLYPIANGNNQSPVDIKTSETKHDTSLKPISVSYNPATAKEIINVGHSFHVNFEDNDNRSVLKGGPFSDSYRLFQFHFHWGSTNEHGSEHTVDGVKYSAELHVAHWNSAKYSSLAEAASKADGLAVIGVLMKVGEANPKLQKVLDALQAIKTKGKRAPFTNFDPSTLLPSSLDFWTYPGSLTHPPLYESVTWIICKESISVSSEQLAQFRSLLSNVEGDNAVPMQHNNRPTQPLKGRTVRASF

SMILES: COc1ccc(C(=O)CSc2nc(Nc3cccc(S(N)(=O)=O)c3)c(C#N)c(C(C)C)n2)cc1
- inhibition of growth at 10 µM [1]: 6.4%
- inhibition of growth at 10 µM [2]: 7.32%
- inhibition of growth at 10 µM [3]: 6.43%
- Ki [4]: 94.9 nM
- Ki [5]: > 20 µM
- inhibition of growth at 10 µM [6]: 12.9%
- inhibition of growth at 10 µM [7]: 11.6%
- inhibition of growth at 10 µM [8]: 6.79%
- inhibition of growth at 10 µM [9]: 11%
- inhibition of growth at 10 µM [10]: 5.74%
- inhibition of growth at 10 µM [11]: 10.8%
- inhibition of growth at 10 µM [12]: 5.91%
- inhibition of growth at 10 µM [13]: 13.4%
- inhibition of growth at 10 µM [14]: 10.2%
- inhibition of growth at 10 µM [15]: 7.35%
- inhibition of growth at 10 µM [16]: 18.5%
- inhibition of growth at 10 µM [17]: 20.4%
- inhibition of growth at 10 µM [18]: 6.14%
- inhibition of growth at 10 µM [19]: 6.87%
- inhibition of growth at 10 µM [20]: 11.6%
- inhibition of growth at 10 µM [21]: 8.74%
- inhibition of growth at 10 µM [22]: 14.2%
- inhibition of growth at 10 µM [23]: 11%

SMILES: COc1ccc(C(=O)CSc2nc(Nc3ccc(S(N)(=O)=O)cc3)cc(-c3ccccc3)n2)cc1
- inhibition of growth at 10 µM [24]: 26.9%
- inhibition of growth at 10 µM [1]: 15%
- Ki [4]: 91.5 nM
- Ki [5]: > 20 µM
- inhibition of growth at 10 µM [8]: 9.43%
- inhibition of growth at 10 µM [9]: 27%
- inhibition of growth at 10 µM [11]: 12.6%
- inhibition of growth at 10 µM [25]: 13.9%
- inhibition of growth at 10 µM [13]: 22.1%
- Ki [26]: > 20 µM
- inhibition of growth at 10 µM [16]: 46.3%
- inhibition of growth at 10 µM [17]: 13%
- inhibition of growth at 10 µM [27]: 26.1%
- inhibition of growth at 10 µM [28]: 10.4%
- inhibition of growth at 10 µM [18]: 28%
- inhibition of growth at 10 µM [29]: 19.8%
- inhibition of growth at 10 µM [19]: 11%
- inhibition of growth at 10 µM [20]: 13.2%

SMILES: O=c1[nH]cc(F)c(=O)[nH]1 [FLUOROURACIL]
- IC50 [30]: 2.46 µM
- IC50 [31]: 3.5 µM
- IC50 [32]: 6.7 µM

SMILES: COc1ccc(C(=O)CSc2nc(Nc3cccc(S(N)(=O)=O)c3)cc(-c3ccccc3)n2)cc1
- inhibition of growth at 10 µM [3]: 6.62%
- inhibition of growth at 10 µM [33]: 6.88%
- Ki [4]: 300 nM
- Ki [5]: > 20 µM
- IC50 [30]: 30.9 µM
- IC50 [31]: 42.5 µM
- inhibition of growth at 10 µM [8]: 13.8%
- inhibition of growth at 10 µM [9]: 23.7%
- inhibition of growth at 10 µM [11]: 7.16%
- inhibition of growth at 10 µM [34]: 6.45%
- inhibition of growth at 10 µM [12]: 6.7%
- inhibition of growth at 10 µM [35]: 7.98%
- inhibition of growth at 10 µM [13]: 26.2%
- inhibition of growth at 10 µM [15]: 15.8%
- inhibition of growth at 10 µM [36]: 6.41%
- Ki [26]: > 20 µM
- inhibition of growth at 10 µM [37]: 12.2%
- inhibition of growth at 10 µM [16]: 12.7%
- inhibition of growth at 10 µM [17]: 16.4%
- IC50 [32]: 28 µM
- inhibition of growth at 10 µM [38]: 7.42%
- inhibition of growth at 10 µM [28]: 12.3%
- inhibition of growth at 10 µM [19]: 16.9%
- inhibition of growth at 10 µM [20]: 8.31%
- inhibition of growth at 10 µM [22]: 20.2%

SMILES: COc1ccc(C(=O)CSc2nc(Nc3cccc(S(N)(=O)=O)c3)c(C#N)c(-c3ccc(C)cc3)n2)cc1
- Ki [4]: 878 nM

SMILES: NS(=O)(=O)c1cccc(Nc2cc(-c3ccccc3)nc(SCC(=O)c3ccc(Br)cc3)n2)c1
- Ki [4]: 525 nM

SMILES: COc1ccc(C(=O)CSc2nc(Nc3ccc(S(N)(=O)=O)cc3)c(C#N)c(-c3ccc(C)cc3)n2)cc1
- Ki [4]: 8710 nM
